Data: US20260048047A1, “SMALL-MOLECULE ACTIVATORS OF MYCOBACTERIUM TUBERCULOSIS ADENYLYL CYCLASE” (priority 2022, published 2026)

Tested on: M. tuberculosis
Assay: Extracellular activity against M. tuberculosis in cholesterol media (Alamar Blue reduction assay)
Format: cell-based, Mycobacterium tuberculosis
Conditions: Mycobacterium tuberculosis, 240 h, 7H12-Cholesterol media, 10 days; read-out: Cholesterol broth: alamar blue--EC50

Structure (SMILES) | EC50
Cc1noc(CC(=O)N2CC3CC2CC3c2nc(C3CCCCC3)no2)n1 (centres unmarked) [Compound 189, 1-(5-(3-cyclohexyl-1,2,4-oxadiazol-5-yl)-2-azabicyclo[2.2.1]heptan-2-yl)-2-(3-methyl-1,2,4-oxadiazol-5-yl)ethan-1-one] | > 10000 nM
Cc1noc(CC(=O)N2CC3CC2CC3c2nc(-c3ccc(Cl)c(Cl)c3)no2)n1 (centres unmarked) [Compound 190, 1-(5-(3-(3,4-dichlorophenyl)-1,2,4-oxadiazol-5-yl)-2-azabicyclo[2.2.1]heptan-2-yl)-2-(3-methyl-1,2,4-oxadiazol-5-yl)ethan-1-one] | 2900 nM
Cc1noc(CC(=O)N2CC3CC2CC3c2nc(C3CCC(F)(F)CC3)no2)n1 (centres unmarked) [Compound 191, 1-(5-(3-(4,4-difluorocyclohexyl)-1,2,4-oxadiazol-5-yl)-2-azabicyclo[2.2.1]heptan-2-yl)-2-(3-methyl-1,2,4-oxadiazol-5-yl)ethan-1-one] | > 10000 nM
Cc1noc(CC(=O)N2CC3CC2CC3c2nc(-c3ccc(F)c(F)c3)no2)n1 (centres unmarked) [Compound 192, 1-(5-(3-(3,4-difluorophenyl)-1,2,4-oxadiazol-5-yl)-2-azabicyclo[2.2.1]heptan-2-yl)-2-(3-methyl-1,2,4-oxadiazol-5-yl)ethan-1-one] | > 10000 nM
Cc1noc(CC(=O)N2CC3CC2CC3c2nc(-c3ccc(F)cc3)no2)n1 (centres unmarked) [Compound 193, 1-(5-(3-(4-fluorophenyl)-1,2,4-oxadiazol-5-yl)-2-azabicyclo[2.2.1]heptan-2-yl)-2-(3-methyl-1,2,4-oxadiazol-5-yl)ethan-1-one] | > 10000 nM
Cc1nonc1CC(=O)N1CC2CC1CC2c1nc(C2CCCCC2)no1 (centres unmarked) [Compound 194, 1-(5-(3-cyclohexyl-1,2,4-oxadiazol-5-yl)-2-azabicyclo[2.2.1]heptan-2-yl)-2-(4-methyl-1,2,5-oxadiazol-3-yl)ethan-1-one] | 790 nM
Cc1nonc1CC(=O)N1CC2CC1CC2c1nc(-c2ccc(Cl)c(Cl)c2)no1 (centres unmarked) [Compound 195, 1-(5-(3-(3,4-dichlorophenyl)-1,2,4-oxadiazol-5-yl)-2-azabicyclo[2.2.1]heptan-2-yl)-2-(4-methyl-1,2,5-oxadiazol-3-yl)ethan-1-one] | 94 nM
Cc1nonc1CC(=O)N1CC2CC1CC2c1nc(C2CCC(F)(F)CC2)no1 (centres unmarked) [Compound 196, 1-(5-(3-(4,4-difluorocyclohexyl)-1,2,4-oxadiazol-5-yl)-2-azabicyclo[2.2.1]heptan-2-yl)-2-(4-methyl-1,2,5-oxadiazol-3-yl)ethan-1-one] | 1250 nM
Cc1nonc1CC(=O)N1CC2CC1CC2c1nc(C2CCC(F)C2)no1 (centres unmarked) [Compound 197, 1-(5-(3-(3-fluorocyclopentyl)-1,2,4-oxadiazol-5-yl)-2-azabicyclo[2.2.1]heptan-2-yl)-2-(4-methyl-1,2,5-oxadiazol-3-yl)ethan-1-one] | 15500 nM
Cc1nonc1CC(=O)N1CC2CC1CC2c1nc(-c2ccc(F)c(F)c2)no1 (centres unmarked) [Compound 198, 1-(5-(3-(3,4-difluorophenyl)-1,2,4-oxadiazol-5-yl)-2-azabicyclo[2.2.1]heptan-2-yl)-2-(4-methyl-1,2,5-oxadiazol-3-yl)ethan-1-one] | 247 nM
Cc1nonc1CC(=O)N1CC2CC1CC2c1nc(-c2ccc(F)cc2)no1 (centres unmarked) [Compound 199, 1-(5-(3-(4-fluorophenyl)-1,2,4-oxadiazol-5-yl)-2-azabicyclo[2.2.1]heptan-2-yl)-2-(4-methyl-1,2,5-oxadiazol-3-yl)ethan-1-one] | 324 nM
Cn1ncnc1CC(=O)N1CC2CC1CC2c1nc(-c2ccc(Cl)cc2)no1 (centres unmarked) [Compound 200, 1-(5-(3-(4-chlorophenyl)-1,2,4-oxadiazol-5-yl)-2-azabicyclo[2.2.1]heptan-2-yl)-2-(1-methyl-1H-1,2,4-triazol-5-yl)ethan-1-one] | 370 nM
Cn1ncnc1CC(=O)N1CC2CC1CC2c1nc(-c2ccc(Cl)c(F)c2)no1 (centres unmarked) [Compound 201, 1-(5-(3-(4-chloro-3-fluorophenyl)-1,2,4-oxadiazol-5-yl)-2-azabicyclo[2.2.1]heptan-2-yl)-2-(1-methyl-1H-1,2,4-triazol-5-yl)ethan-1-one] | 200 nM
Cn1ncnc1CC(=O)N1CC2CC1CC2c1nc(-c2ccc(Cl)cc2F)no1 (centres unmarked) [Compound 204, 1-(5-(3-(4-chloro-2-fluorophenyl)-1,2,4-oxadiazol-5-yl)-2-azabicyclo[2.2.1]heptan-2-yl)-2-(1-methyl-1H-1,2,4-triazol-5-yl)ethan-1-one] | 740 nM
Cn1ncnc1CC(=O)N1CC2CC1CC2c1nc(-c2ccc(F)cc2)no1 (centres unmarked) [Compound 205, 1-(5-(3-(4-fluorophenyl)-1,2,4-oxadiazol-5-yl)-2-azabicyclo[2.2.1]heptan-2-yl)-2-(1-methyl-1H-1,2,4-triazol-5-yl)ethan-1-one] | 1600 nM
Cc1noc(CC(=O)N2CC3CC(C2)C3c2nc(-c3ccc(Cl)c(Cl)c3)no2)n1 (centres unmarked) [Compound 206, 1-(6-(3-(3,4-dichlorophenyl)-1,2,4-oxadiazol-5-yl)-3-azabicyclo[3.1.1]heptan-3-yl)-2-(3-methyl-1,2,4-oxadiazol-5-yl)ethan-1-one] | > 10000 nM
Cc1noc(CC(=O)N2CC3CC(C2)C3c2nc(C3CCC(F)(F)CC3)no2)n1 (centres unmarked) [Compound 207, 1-(6-(3-(4,4-difluorocyclohexyl)-1,2,4-oxadiazol-5-yl)-3-azabicyclo[3.1.1]heptan-3-yl)-2-(3-methyl-1,2,4-oxadiazol-5-yl)ethan-1-one] | > 10000 nM
Cc1noc(CC(=O)N2CC3CC(C2)C3c2nc(-c3ccc(F)c(F)c3)no2)n1 (centres unmarked) [Compound 208, 1-(6-(3-(3,4-difluorophenyl)-1,2,4-oxadiazol-5-yl)-3-azabicyclo[3.1.1]heptan-3-yl)-2-(3-methyl-1,2,4-oxadiazol-5-yl)ethan-1-one] | ≥ 10000 nM
Cc1noc(CC(=O)N2CC3CC(C2)C3c2nc(-c3ccc(F)cc3)no2)n1 (centres unmarked) [Compound 209, 1-(6-(3-(4-fluorophenyl)-1,2,4-oxadiazol-5-yl)-3-azabicyclo[3.1.1]heptan-3-yl)-2-(3-methyl-1,2,4-oxadiazol-5-yl)ethan-1-one] | ≥ 10000 nM
Cc1nocc1CC(=O)N1CC2CC(C1)C2c1nc(-c2ccc(F)cc2)no1 (centres unmarked) [Compound 210, 1-(6-(3-(4-fluorophenyl)-1,2,4-oxadiazol-5-yl)-3-azabicyclo[3.1.1]heptan-3-yl)-2-(3-methylisoxazol-4-yl)ethan-1-one] | ≥ 25000 nM
Cc1nonc1CC(=O)N1CC2CC(C1)C2c1nc(C2CCC(C)(F)CC2)no1 (centres unmarked) [Compound 211, 1-(6-(3-(4-fluoro-4-methylcyclohexyl)-1,2,4-oxadiazol-5-yl)-3-azabicyclo[3.1.1]heptan-3-yl)-2-(4-methyl-1,2,5-oxadiazol-3-yl)ethan-1-one] | 3760 nM
Cc1nonc1CC(=O)N1CC2CC(C1)C2c1nc(-c2ccc(Cl)c(Cl)c2)no1 (centres unmarked) [Compound 212, 1-(6-(3-(3,4-dichlorophenyl)-1,2,4-oxadiazol-5-yl)-3-azabicyclo[3.1.1]heptan-3-yl)-2-(4-methyl-1,2,5-oxadiazol-3-yl)ethan-1-one] | 5010 nM
Cc1nonc1CC(=O)N1CC2CC(C1)C2c1nc(C2CCC(F)(F)CC2)no1 (centres unmarked) [Compound 213, 1-(6-(3-(4,4-difluorocyclohexyl)-1,2,4-oxadiazol-5-yl)-3-azabicyclo[3.1.1]heptan-3-yl)-2-(4-methyl-1,2,5-oxadiazol-3-yl)ethan-1-one] | 488 nM
